{"source": "patent US11452728B2", "about": "“7-aminocephalosporanic acid derivative as inhibitor of IL15 and IL-2 activity” (Warszawski Uniwersytet Medyczny, priority 2013, dated 2022)", "key": {"IL-15-stimulated PBMC": {"tested_on": "IL-15-stimulated PBMC", "experiment": "IL-15-induced PBMC proliferation (BrdU Cell Proliferation Assay)", "type": "cell-based, human", "settings": "IL-15 5 ng/ml; Cefazolin 20, 100, 300 μM; 4 days; repeated three times, different donors", "procedure": "(§4) All experiments were carried out on peripheral blood mononuclear cells (PBMC) from healthy donors. The cells were isolated under the standard protocol regarding density gradient centrifugation. According to the general protocol, 6 ml of blood was layered on 3 ml of Lymphoprep (Axis-shield, Norway), then centrifuged at 800×g for 15 min. The layer of PBMC was collected, the cells were washed twice with phosphate buffered saline (PBS) (BIOMED-LUBLIN, Poland) and suspended in medium RPMI1640 (Gibco, Great Britain), containing 10 mM HEPES (Sigma, USA), 10% fetal calf serum (BIOMED-LUBLIN, Poland) and antibiotic (streptomycin sulfate, penicillin G sodium; amphotericin B, PAA, Austria). In all the in vitro experiments non-stimulated PBMC were used as the control. The inhibition efficacy was assessed in relation to the cells stimulated with IL-15 or IL-2. PBMC proliferation was evaluated using commercially available BrdU Cell Proliferation Assay (Calbiochem, Merck, Germany). PBMC were seeded in a 96-well plate (25×10^3 cells in 200 μL of the culture medium/well). The next day the cells were treated with the tested compound at final concentrations: 20 μM, 100 μM and 300 μM. […] The results are expressed as the percentage change of proliferating cells with regard to the control cells stimulated with IL-15 or IL-2. […]"}, "IL-2-stimulated PBMC": {"tested_on": "IL-2-stimulated PBMC", "experiment": "IL-2-induced PBMC proliferation (BrdU Cell Proliferation Assay)", "type": "cell-based, human", "settings": "IL-2 5 ng/ml; Cefazolin 20, 100, 300 μM; 4 days; repeated three times, different donors", "procedure": "as §4"}, "[1]": {"tested_on": "IL-15-induced TNF-α synthesis in PBMC", "experiment": "IL-15-induced TNF-α synthesis in PBMC (ELISA)", "type": "cell-based, human", "settings": "IL-15 5 ng/ml; 48 h; Cefazolin 20-1000 μM; vs IL-15 stimulated control cells", "experimental": "(§1) All experiments were carried out on peripheral blood mononuclear cells (PBMC) from healthy donors. The cells were isolated under the standard protocol regarding density gradient centrifugation. According to the general protocol, 6 ml of blood was layered on 3 ml of Lymphoprep (Axis-shield, Norway), then centrifuged at 800×g for 15 min. The layer of PBMC was collected, the cells were washed twice with phosphate buffered saline (PBS) (BIOMED-LUBLIN, Poland) and suspended in medium RPMI1640 (Gibco, Great Britain), containing 10 mM HEPES (Sigma, USA), 10% fetal calf serum (BIOMED-LUBLIN, Poland) and antibiotic (streptomycin sulfate, penicillin G sodium; amphotericin B, PAA, Austria).\n(§2) In all the in vitro experiments non-stimulated PBMC were used as the control. The inhibition efficacy was assessed in relation to the cells stimulated with IL-15 or IL-2. […]\n(§3) The PBMC were seeded in a 24-well plate (2×10^6 cells in 1 ml of the culture medium/well), treated with the tested compound and after 30 min stimulated with IL-15 (5 ng/ml) or IL-2 (5 ng/ml). After 48 h incubation, the culture medium was collected from each well to determine the TNF-α concentration, cells were harvested and lysed, and the concentration of total protein was measured in cell lysates. The obtained values of TNF-α concentration were calculated for 1 mg of protein. […]"}, "[2]": {"tested_on": "IL-2-induced TNF-α synthesis in PBMC", "experiment": "IL-2-induced TNF-α synthesis in PBMC (ELISA)", "type": "cell-based, human", "settings": "IL-2 5 ng/ml; 48 h; Cefazolin 300 μM; vs IL-2 stimulated control cells", "experimental": "as §1, §2, §3"}, "[3]": {"tested_on": "IL-15-induced IL-17 synthesis in PBMC", "experiment": "IL-15-induced IL-17 synthesis in PBMC (ELISA)", "type": "cell-based, human", "experimental": "as §1, §2\nas §3, with “PBMC” for “The PBMC”, “the inhibitor,” for “the tested compound and”, “30 min.” for “30 min”, “48 hr” for “48 h”, “the IL-17” for “the TNF-α”, “of IL-17” for “of TNF-α”"}, "[4]": {"tested_on": "IL-2-induced IL-17 synthesis in PBMC", "experiment": "IL-2-induced IL-17 synthesis in PBMC (ELISA)", "type": "cell-based, human", "settings": "IL-2 5 ng/ml; 48 h; Cefazolin 300 μM", "experimental": "as §1, §2\nas §3, with “PBMC” for “The PBMC”, “the inhibitor,” for “the tested compound and”, “30 min.” for “30 min”, “48 hr” for “48 h”, “the IL-17” for “the TNF-α”, “of IL-17” for “of TNF-α”"}, "Gram-positive bacteria": {"tested_on": "Gram-positive bacteria", "settings": "cited from earlier work"}, "[5]": {"settings": "cited from earlier work"}}, "data": [{"compound": "Cc1nnc(SCC2=C(C(=O)O)N3C(=O)[C@@H](NC(=O)Cn4cnnn4)[C@H]3SC2)s1", "note": "[Cefazolin]", "values": [{"measurement": "effect on IL-15-induced PBMC proliferation", "setting": "IL-15-stimulated PBMC", "value": "inhibits"}, {"measurement": "effect on IL-2-induced PBMC proliferation", "setting": "IL-2-stimulated PBMC", "value": "inhibits"}, {"measurement": "effect on IL-15-induced TNF-α synthesis in PBMC", "setting": "[1]", "value": "significantly reduces"}, {"measurement": "effect on IL-2-induced TNF-α synthesis in PBMC", "setting": "[2]", "value": "significantly reduces"}, {"measurement": "effect on IL-15-induced IL-17 synthesis in PBMC", "setting": "[3]; IL-15 5 ng/ml, 48 h, Cefazolin 20-1000 μM, vs IL-15 stimulated control cells", "value": "significantly reduces"}, {"measurement": "effect of increasing Cefazolin concentration on IL-15-induced IL-17 synthesis", "setting": "[3]; increase of concentration from 200 μM to 1000 μM", "value": "does not affect IL-17 synthesis to any great extent"}, {"measurement": "effect on IL-2-induced IL-17 synthesis in PBMC", "setting": "[4]", "value": "Strong inhibitory effect"}, {"measurement": "cytotoxic or apoptotic activity on PBMC", "setting": "PBMC", "value": "does not trigger the apoptotic pathway"}, {"measurement": "bactericidal activity against Gram-positive bacteria", "setting": "Gram-positive bacteria", "value": "Potent bactericidal activity"}, {"measurement": "crossing of the blood brain barrier", "setting": "[5]; in vivo", "value": "does not cross the blood brain barrier"}, {"measurement": "excreted in urine of unchanged structure, share of the excreted amount", "setting": "[5]; urine, glomerular filtration", "value": 90, "unit": "%"}]}]}
